Patent publication US20080008771A1, “Nitric Oxide Dioxygenase Inhibitors” (priority 2004, published 2008)
Several values for one entry are separate records, joined by “and”; a condition that tells them apart may be missing. Identical values can stand only once. Like-named read-outs stand apart in the source and are kept apart here.

Key:
[1] = tested on: microsomal NO metabolism (Caco-2 microsomes); conditions: for IC50: read-out: IC50, microsomal NO metabolism
Protocol: NO metabolism by cell fractions was assayed in 100 mM Na-Hepes, pH 7.8, 0.25 M sucrose, 1 mM EDTA and 1 mM EGTA (Sucrose Buffer) containing 15 μM Cu,ZnSOD and 100 μM NADPH. Cell fractions were added with a 50 μl Hamilton syringe to give a total of 100-750 μg protein. For determination of O2 dependence of microsomal NO metabolism, the 2 ml reaction was sparged with N2 for 10 minutes to remove O2, and O2 was depleted from microsomal membranes by stirring membranes under a stream of N2 in a rubber septum-sealed tube on ice. Alternatively, residual O2 was removed by incubating the reaction mix with 16 units glucose oxidase, 1 mM glucose and 260 units catalase for 5 minutes prior to adding NO and microsomes. O2 was added from O2 saturated buffer to achieve various O2 concentrations.
Data represent the average of two or more two independent trials.
NO consumption by Caco-2 microsomes was assayed as previously described.

[2] = molecular target: T1, NADPH-cytochrome P450 oxidoreductase (CYPOR) (Homo sapiens, UniProt P16435); assay: CYPOR (cytochrome c reductase) activity
T1 sequence (P16435 1-677): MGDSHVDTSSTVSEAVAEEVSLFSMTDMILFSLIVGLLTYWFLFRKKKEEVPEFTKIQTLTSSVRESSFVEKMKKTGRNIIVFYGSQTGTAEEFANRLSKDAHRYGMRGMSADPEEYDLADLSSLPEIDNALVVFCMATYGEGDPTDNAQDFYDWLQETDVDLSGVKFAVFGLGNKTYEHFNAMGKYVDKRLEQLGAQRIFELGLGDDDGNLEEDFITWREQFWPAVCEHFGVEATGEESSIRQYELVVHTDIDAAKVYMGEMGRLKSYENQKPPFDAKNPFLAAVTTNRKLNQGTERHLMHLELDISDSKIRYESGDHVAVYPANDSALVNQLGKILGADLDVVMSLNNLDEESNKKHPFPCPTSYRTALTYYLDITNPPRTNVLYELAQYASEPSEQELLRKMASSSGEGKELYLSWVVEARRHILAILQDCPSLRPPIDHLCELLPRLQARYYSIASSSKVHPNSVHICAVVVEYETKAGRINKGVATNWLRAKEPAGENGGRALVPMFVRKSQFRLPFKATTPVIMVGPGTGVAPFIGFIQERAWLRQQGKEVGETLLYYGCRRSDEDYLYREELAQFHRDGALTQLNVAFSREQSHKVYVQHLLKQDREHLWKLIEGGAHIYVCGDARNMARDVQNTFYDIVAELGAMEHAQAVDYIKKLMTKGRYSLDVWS
Protocol: The incubations contained 120 μl of Sucrose Buffer and 30 μl of PBS (8.1 mM Na2HPO4, 1.1 mM KH2PO4, 138 mM NaCl and 2.7 mM KCl, pH 7.4) introduced with IgG or BSA.

flavohemoglobins = assay: CO binding to ferrous hemes of flavohemoglobins; conditions: read-out: dissociation equilibrium constants, ferrous hemes of flavohemoglobins
flavohemoglobins (NOD) = assay: CO inhibition of flavohemoglobin NOD activities; assay type: biochemical; conditions: read-out: Ki, competitive inhibition of NOD activities with respect to O2
Caco-2 cells [3] = assay: NO consumption (NO metabolism) by Caco-2 cells; conditions: for % Activity, Caco-2: agent 100 μM, 15 min incubation, 100% = 25.4±1.4 nmol NO per minute per 107 cells
Protocol: (§1) Initial rates of NO consumption were measured at 1 μM NO unless otherwise stated, and all rates were corrected for background rates of NO decomposition. A milliunit of activity is defined as the amount metabolizing 1 nanomol NO per min. […] Rotenone (0.5 μM) was included in CO inhibition assays to block respiration and O2 depletion. […] Cell permeabilization was monitored by the loss of NO metabolic activity.
(§2) Error bars represent the SD of three independent trials.
(§3) In addition to cyanide and CO, heme-binding imidazoles, a panel of substrate-inhibitors of cytochrome P450s, inhibitors of the NO-binding heme oxygenases, and free radical scavengers were surveyed for effects on NO metabolism by Caco-2 and A549 cells. All agents were used at concentrations showing minimal cytotoxicity as defined by <5% decrease in trypan blue exclusion following 15 min exposure (data not shown). Caco-2 and A549 cells were grown, harvested and assayed for NO consumption activity following a 15 min incubation in 2 ml DPBS containing 5 mM glucose and 100 μg/ml cycloheximide with the indicated agent as previously described. Data represent the mean ±SD of three independent exposures.

A549 cells = assay: NO consumption (NO metabolism) by A549 cells; assay type: cell-based, human; conditions: for activity at 20 µM: agent 20 μM; for Inhibition of NO metabolic activity, A549: porphyrin 100 μM
From the text: . The results are show in Table II.

[4] = molecular target: T2, A. eutrophus flavohemoglobin (Cupriavidus necator, UniProt P39662)
From the text: (§4) The specific activities of the E. coli, A. eutrophus and S. cerevisiae NOD were 185, 90 and 105 NO heme^−1 s^−1, respectively.

Caco-2 cells [5] = tested on: Caco-2 cells
Protocol: as §1, §2, §3

[6] = molecular target: T3, E. coli flavohemoglobin (NOD) (Escherichia coli, UniProt P24232); assay: biochemical
From the text: as §4

[7] = molecular target: T2, A. eutrophus flavohemoglobin; assay: biochemical; conditions: Apparent Ki
From the text: as §4

[8] = molecular target: S. cerevisiae flavohemoglobin (Saccharomyces cerevisiae, UniProt P39676); assay: biochemical
From the text: as §4

S. cerevisiae = assay: NO consumption (NOD) activity within S. cerevisiae; assay type: cell-based, Saccharomyces cerevisiae; conditions: 0 μM to about 20 μM miconazole
From the text: Error bars represent the standard deviation of the average of three independent trials.

[9] = tested on: S. cerevisiae parental strain BY4742; assay: Growth of S. cerevisiae under NO atmosphere; assay type: cell-based, Saccharomyces cerevisiae; conditions: 5 μM miconazole, 960 ppm NO, 21% O2
Protocol: At the time indicated by the arrow, cultures were exposed to an atmosphere containing 960 ppm NO (<2 μM NO in solution) in a 21% O2/N2 balance (lines 2 and 4) or were maintained under an atmosphere of 21% O2 balanced with N2 (lines 1 and 3).
At the time indicated by the arrow, cultures were either maintained fewer than 21% O2 balanced with N2 (lines 1 and 3) or were exposed to 960 ppm NO in the 21% O2/N2-balanced atmosphere (lines 2 and 4). Cultures were grown and exposed to gases.

[10] = molecular target: T3, E. coli flavohemoglobin (NOD)
From the text: as §4

heme oxygenase = conditions: cited from earlier work
[11] = Homo sapiens, A549, 0.25 h, 15 min incubation

T2 sequence (P39662 whole entry): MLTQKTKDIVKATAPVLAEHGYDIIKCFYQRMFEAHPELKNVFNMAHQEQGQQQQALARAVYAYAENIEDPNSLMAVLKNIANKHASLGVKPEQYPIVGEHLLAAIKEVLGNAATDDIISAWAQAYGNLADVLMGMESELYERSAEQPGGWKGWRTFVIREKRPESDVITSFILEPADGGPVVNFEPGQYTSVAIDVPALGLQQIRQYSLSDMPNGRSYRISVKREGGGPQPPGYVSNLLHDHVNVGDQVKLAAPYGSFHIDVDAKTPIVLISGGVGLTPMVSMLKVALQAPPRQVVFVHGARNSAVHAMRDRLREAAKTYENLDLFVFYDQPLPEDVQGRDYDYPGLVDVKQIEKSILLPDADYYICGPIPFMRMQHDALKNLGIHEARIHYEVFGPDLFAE
T3 sequence (P24232 whole entry): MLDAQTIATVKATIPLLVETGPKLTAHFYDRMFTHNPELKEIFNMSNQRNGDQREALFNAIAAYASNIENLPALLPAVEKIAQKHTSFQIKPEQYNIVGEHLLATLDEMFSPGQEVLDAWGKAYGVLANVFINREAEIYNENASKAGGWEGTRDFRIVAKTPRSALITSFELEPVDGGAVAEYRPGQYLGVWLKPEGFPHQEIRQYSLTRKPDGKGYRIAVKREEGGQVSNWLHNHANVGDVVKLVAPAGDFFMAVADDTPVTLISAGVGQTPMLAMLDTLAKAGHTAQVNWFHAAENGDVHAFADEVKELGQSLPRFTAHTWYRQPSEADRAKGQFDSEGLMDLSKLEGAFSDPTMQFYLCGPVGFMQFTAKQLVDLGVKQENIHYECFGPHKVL
Sequence of S. cerevisiae flavohemoglobin (P39676 whole entry): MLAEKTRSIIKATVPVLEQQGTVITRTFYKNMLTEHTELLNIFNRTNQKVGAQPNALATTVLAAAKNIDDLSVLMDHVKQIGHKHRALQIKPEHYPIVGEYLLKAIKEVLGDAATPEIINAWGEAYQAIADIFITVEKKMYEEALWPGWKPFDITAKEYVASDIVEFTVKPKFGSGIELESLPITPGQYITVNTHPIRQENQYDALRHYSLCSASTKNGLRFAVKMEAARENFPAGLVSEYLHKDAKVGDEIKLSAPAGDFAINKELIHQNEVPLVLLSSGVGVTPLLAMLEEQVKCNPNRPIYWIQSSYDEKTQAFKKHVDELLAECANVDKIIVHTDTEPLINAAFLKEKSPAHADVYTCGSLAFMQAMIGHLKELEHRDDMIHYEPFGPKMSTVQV

## Cc1c(C)c2c(c(C)c1O)CC[C@@](C)(CCC[C@H](C)CCC[C@H](C)CCCC(C)C)O2 [α-tocopherol]
[1]; inhibitor 100 μM
  % Activity, microsomal NO metabolism: 106.9 ± 3.4%

## c1ccc2c(c1)[I+]c1ccccc1-2 [DPI, Diphenyleneiodonium]
[1]
  Loss of microsomal NO metabolic activity: Seventy-five percent

## C=CC1=C(C)c2cc3[nH]c(cc4nc(cc5[nH]c(cc1n2)c(C)c5CCC(=O)O)C(CCC(=O)O)=C4C)c(C)c3C=C [protoporphyrin, Protoporphyrin IX]
[1]
  Effect of porphyrins on microsomal NO metabolism: inhibited NO metabolism to a significant (p<0.05), albeit lesser, extent
[2]; 20 μM, data not shown
  Effect on cytochrome c reduction by microsomal membranes and purified CYPOR: progressive inhibition of cytochrome c reduction

## [C-]#[O+] [CO, carbon monoxide]
[1]; 10 μM CO, 20 μM O2, 1 μM NO
  Inhibition of microsomal NO consumption: > 50%
[1]; CO:O2 ratio 0.75
  Inhibition of NO metabolism by CO, microsomes: about 75%
flavohemoglobins
  Kd: < 0.7 µM
Flavohemoglobins (NOD)
  Ki: ~1 µM
Caco-2 cells [3]; CO:O2 ratio 0.4
  Inhibition of NO metabolism by CO, cells: about 75%
Caco-2 cells [3]; read-out: Ki(CO), competitive inhibition of cellular NO metabolism, 5 μM CO, 12.5 μM O2, competitive with O2
  Ki: ~3 µM and 3 µM

## C=CCSCC=C [diallyl sulfide]
Caco-2 cells [3]
  % Activity, Caco-2: 98.1 ± 1.7%

## Clc1ccc(COC(Cn2ccnc2)c2ccc(Cl)cc2Cl)cc1 (stereo not drawn) [econazole]
A549 cells; [11]
  activity at 20 µM: 36.2 ± 4.9%
[1]; 100 µM
  % Activity, microsomal NO metabolism: 15.3 ± 0.0%
[1]; Caco-2 microsomes
  IC50: 10 µM

## Nc1ccc(S(=O)(=O)Nc2ccnn2-c2ccccc2)cc1 [sulfaphenazole]
Caco-2 cells [3]
  % Activity, Caco-2: 97.1 ± 3.0%

## COC(=O)[C@@H](N)CCCNC(=N)N[N+](=O)[O-] [L-NAME, N ω-nitro-L-arginine methyl ester]
A549 cells; Homo sapiens, A549, 0.25 h, agent 1 mM, 15 min incubation
  activity at 1000 µM: 101 ± 2.9%
[1]; inhibitor 1 mM
  % Activity, microsomal NO metabolism: 96.7 ± 6.0%

## C=CC1=C(C)c2cc3[n-]c(cc4[n-]c(cc5nc(cc1n2)C(C)=C5C=C)c(C)c4CCC(=O)O)c(CCC(=O)O)c3C.[Zn+2] [Zn2+-protoporphyrin, Zn(II)-protoporphyrin IX]
A549 cells
  Inhibition of NO metabolic activity, A549: about 40%
[1]
  Effect of porphyrins on microsomal NO metabolism: inhibited microsomal NO metabolism
[2]
  Effect on cytochrome c reduction by microsomal membranes and purified CYPOR: progressive inhibition of cytochrome c reduction

## Cc1nc2c([nH]1)c(=O)n(C)c(=O)n2Cc1ccco1 [furafylline]
A549 cells; Homo sapiens, A549, 0.25 h, agent 10 μM, 15 min incubation
  activity at 10 µM: 98.2 ± 3.1%

## CC(=O)N1CCN(c2ccc(OCC3COC(Cn4ccnc4)(c4ccc(Cl)cc4Cl)O3)cc2)CC1 (stereo not drawn) [ketoconazole]
[1]; 100 µM
  % Activity, microsomal NO metabolism: 25.9 ± 2.6%
[1]
  IC50: 10 µM
[4]; belongs to the first-phase Ki
  Fraction inhibited as percentage of total activity, first (major) phase: (˜75%)
[4]; belongs to the second-phase Ki
  Fraction inhibited as percentage of total activity, second (minor) phase: (˜25%)
Caco-2 cells [5]
  % Activity, Caco-2: 22.3 ± 4.1%
[6]
  Ki: 5 µM
[7]; first (major) phase
  Ki: 0.7 µM
[7]; second (minor) phase
  Ki: 25 µM
[8]
  Ki: > 100 µM

## Clc1ccc(COC(Cn2ccnc2)c2ccc(Cl)cc2Cl)c(Cl)c1 (stereo not drawn) [miconazole]
A549 cells; [11]
  activity at 20 µM: 38.2 ± 5.9%
[1]; 100 µM
  % Activity, microsomal NO metabolism: 17.0 ± 0.0%
[1]; Caco-2 microsomes
  IC50: 20 µM
S. cerevisiae
  Effect on NOD activity in S. cerevisiae: inhibition of NOD activity
[9]
  Effect on growth of S. cerevisiae together with NO: synergistically inhibited growth of S. cerevisiae

## O=c1c(O)c(-c2ccc(O)c(O)c2)oc2cc(O)cc(O)c12 [quercetin]
[1]; inhibitor 100 μM
  % Activity, microsomal NO metabolism: 84.1 ± 4.4%

## C=CCS[S+]([O-])CC=C (stereo not drawn) [Allicin, diallyl thiosulfinate]
[10]
  Effect on isolated E. coli NOD: inactivates the isolated E. coli NOD

## Sn(IV)-protoporphyrin IX [Sn4+-protoporphyrin]
A549 cells
  Inhibition of NO metabolic activity, A549: no effect
Heme oxygenase
  Ki: < 0.1 µM
